Laboratory results: US11752156B2, “Compositions and methods for treating hyperproliferative skin disorders” (Athenex HK Innovative Limited, priority 2018, dated 2023)

Columns and labels:
[1] = system: CCD-1106 KERTr keratinocytes; assay: inhibition of cell growth by tazarotene, keratinocytes; assay type: cell-based, human
Text: FIG. 7: Inhibition of CCD1106 KERTr keratinocyte growth by tazarotene, as determined by staining.
(§1) Examples of suitable retinoids include retinol, retinal, retinoic acid isotretinoin, alitreninoin, etretinate, acitretin, adapalene, bexarotene, and/or tazarotene. FIGS. 7 and 8 show the effects of tazarotene on growth of cells in culture, including CCD-1106 KERTr keratinocytes (FIG. 7) and A431 cells (epidermoid cells obtained from a human squamous cell carcinoma, FIG. 8).

[2] = system: A431 cells (epidermoid cells obtained from a human squamous cell carcinoma); assay: inhibition of cell growth by tazarotene, A431; assay type: cell-based
Text: FIG. 8: Inhibition of A431 cell growth by tazarotenee, as determined by staining.
as §1

[3] = system: cell proliferation/growth; assay: combined treatment with KX01 and tazarotene, inhibition of cell proliferation/growth; assay type: cell-based
Text: as §1

Question: Which results are given for `CCOC(=O)c1ccc(C#Cc2ccc3c(c2)C(C)(C)CCS3)nc1` [Tazarotene, tazarotene]?
Answer: IC50 ([1]; Homo sapiens, CCD-1106, model estimate): 12.4 µM; Maximum inhibition ([1]; model estimate): 0.903; H ([1]; steepness of slope): 2.11; Maximum inhibition ([2]; A431, model estimate): 1.09; H ([2]; A431, steepness of slope): 1.66; IC50 ([2]; Homo sapiens, A-431, A431, model estimate): 36.3 µM; H [3]: 1.0; Imax [3]: 1.1; IC50 ([3]; column head says nM): 13300 nM
